# Data reported in patent publication US8614064B2, “Methods of diagnosing atherosclerosis by measuring ApoCI” (The Johns Hopkins University, priority 2003, dated 2013).
# Key:
# caspase-3 = assay: Caspase-3 level, Western immunoblot, ASMC; assay type: cell-based, human; details: compared with control medium; ApoCI and ApoCIII 2.5 μg/ml, ApoCI-enriched HDL 1 μg apoA-I/ml, ApoCI-poor HDL 5 μg apoA-I/ml
# Procedure: After incubation with ApoCI (2.5 μg/ml medium), ApoCIII (2.5 μg/ml medium), apoC-1-enriched HDL (1 μg apoA-I/ml medium), or ApoCI-poor HDL (5 μg ApoA-I/ml medium) for 24 h and 48 h, the cells were subjected to extraction with a buffer (30 mM HEPES, pH 7.5, 10 mM KCl, 1.5 mM MgCl2, 5 mM DTI, 2 mM phenylmethylsulfonyl fluoride (PMSF), 1% Nonidet P-40, 0.5% sodium deoxycholate, 0.1% SDS, 2 μg/ml leupeptin, 2 μg/ml aprotinin, 0.5 μg/ml benzamidine, and 250 mM sucrose) on ice for 30 min. Next, the samples were centrifuged at 10,000×g at 4° C. The supernatant was utilized as a source of cytochrome c in Western immunoblot assay. The pellets were lysed in RIPA buffer (phosphate buffer saline, 1% Nonidet P-40, 0.5% sodium deoxycholate, 0.1% SDS, and cocktail of inhibitors described above). The samples were passed through a 21-gauge needle to shear the DNA. Next, 10 μl of PMSF (10 mg/ml) was added and incubation continued for 60 min on ice. The samples were centrifuged at 10,000-×g for 10 min at 4° C. The supernatants were used as a source of protein in Western immunoblot assay for determination of caspase activation. Proteins (100 μg) were separated using 4-15% SDS-polyacrylamide gel under denaturing conditions and electro transferred onto nitrocellulose. […]
# [1] = system: human aortic smooth muscles cells (ASMC); assay: Fluorescence microscope quantitative assay of apoptotic death (DAPI staining); assay type: cell-based; details: for apoptotic cells by white staining of the nucleus with DAPI (FIG. 1A): 2.5 μg/mL medium; for percent of apoptotic cells (DAPI, FIG. 1B): ApoCI and ApoCIII 2.5 μg/mL medium, ApoCI-enriched HDL 1 μg apoA-I/mL, ApoCI-poor HDL 5 μg apoA-I/mL, control 2.24%
# Procedure: FIGS. 1A-1C depict the effect of apolipoproteins on apoptosis in human aortic smooth muscles cells (ASMC). ASMC were grown on sterilized glass cover slips and incubated for 24 hours with media alone (control), ApoCIII (negative control, 2.5 μg/mL medium), ApoCI (2.5 μg/mL medium), ApoCI-enriched HDL (1 μg apoA-I/mL medium), or ApoCI-poor HDL (5 μg apoA-I/mL medium) for 24 hours. Cells were then fixed with ethanol-acetic acid (3:1 volume/volume) and washed 3 times with phosphate-buffered saline. The cells were then stained with DAPI reagent, mounted on a glass cover slide, and subjected to fluorescence microscopy. FIG. 1A: The nucleus of normal cells stains blue and the nucleus of apoptotic cells stains is fragmented white. FIG. 1B: 300 to 500 cells in each sample were counted and the percent of apoptotic cells was plotted. Values are mean±SD; **P<0.01, ***P<0.001. FIG. 1C: DNA ladder assay. Confluent cultures of ASMC were incubated with control medium alone, ApoCI (2.5 μg/mL medium), ApoCIII (negative control, 2.5 μg/mL medium), and TNF-α (positive control, 20 ng/mL medium). Genomic DNA was extracted and 10 μg DNA was subjected to agarose gel electrophoresis. The gels were calibrated with commercially available DNA standards. After electrophoresis, the gels were stained with ethidium bromide and then photographed.
# FIGS. 2A-2B depict the effect of ApoCI, the N-SMase inhibitor, GW4869, and C-2 ceramide on apoptosis in cultured human ASMC. FIG. 2A: ASMC (1×10^3) were seeded on sterilized glass cover slips and grown in tissue culture medium with 10% fetal calf serum for 48 hours. […] Thirty minutes later, vehicle DMSO, ApoCI (2.5 μg/mL), or C2-ceramide (10 μmol/L) were added to dishes, and the incubation continued for 24 hours. The cells were then fixed with ethanol-acetic acid (3:1 v/v), stained with DAPI reagent, assessed by fluorescent microscopy, and photographed. Top to bottom: control cells; cells incubated with ApoCI± the N-SMase inhibitor, GW4869; and cells incubated with ApoCI GW4869, and C2-ceramide. FIG. 2B: The DAPI-stained ASMC from the four experimental conditions described was analyzed for quantitative apoptosis. Mean (SD) from 4 experiments. *P<0.05.
# Human AoSMC that were negative for mycoplasma, hepatitis B and C and HIV-1 were purchased from Clonetics (San Diego, Calif.) and cultured in Dulbecco's minimal essential medium (Invitrogen, Carlsbad, Calif.) with 10% fetal bovine serum (Hyclone, Salt Lake City, Utah), 100-units/ml penicillin, 100-μg/ml streptomycin to confluence. The cells were incubated in serum-free medium for 30 min prior to initiating the experiments. Cells were then washed and harvested in PBS, and centrifuged at 1500 rpm for 5 min at 4° C. Protease inhibitors were then added and the pellets stored frozen at −30° C. until use.
# 1×10^3 cells were grown on sterilized glass cover slips in 6-well trays and treated with ApoCI (2.5 μg/ml medium), ApoCIII (2.5 μg/ml medium), tumor necrosis factor (TNF)-α (30 ng/ml), ApoCI-enriched HDL (1 μg apoA-I/ml medium) and ApoCI-poor HDL (5 μg apoA-I/ml medium). After 24 h incubation, the medium was removed, cells fixed with ethanol:acetic acid […] and stored at 4° C. Next, the fixing solution was removed and cells stored frozen at −30° C. Cover slips were mounted on the microscope slides and stained with DAPI reagent (4,6-diamino-2-phenylindol, dihydrochloride). The stained nuclei were visualized by fluorescence microscopy (Zeiss Axiovert 25). Apoptotic cells were determined after counting—500 cells in a double blind fashion.
Compound,stimulation of caspase-3 level/expression (caspase-3),apoptotic cells by white staining of the nucleus with DAPI (FIG. 1A) ([1]; 24 h),"percent of apoptotic cells (DAPI, FIG. 1B) ([1]; 24 h) [%]","ApoCI-induced apoptosis, percent apoptotic cells (FIG. 2B) ([1]; ApoCI 2.5 μg/mL, 24 h, control ~2%) [%]","effect of GW4869 on ApoCI-induced apoptosis, lower dose ([1]; GW4869 10 μmol/L)","effect of GW4869 on ApoCI-induced apoptosis ([1]; GW4869 20 μmol/L, 30 min before ApoCI 2.5 μg/mL, 24 h)"
"ApoCIII: purified human ApoCIII purchased from Academy Bio-Medical Company, used as negative control",to a lesser extent than ApoCI-enriched HDL,only a few apoptotic cells,4.78,–,–,–
"Apolipoprotein C-I (TPDVSSALDKLKEFGNTLEDKARELISRIKQSELSAKMREWFSETFQKVKEKLKIDS; UniProt P02654 27-83, looked up) [ApoCI, 6.6-kDa single-chain plasma protein of 57 amino acids; purified human ApoCI purchased from Academy Bio-Medical Company]",4 fold,many apoptotic cells,26.19,~12,–,–
O=C(/C=C/c1ccc(/C=C/C(=O)Nc2ccc(C3=NCCN3)cc2)cc1)Nc1ccc(C2=NCCN2)cc1 [GW4869],–,–,–,–,also observed,completely abrogated
